Results published in publication PMC10726920 (Cancer Medicine, 2023).

System: patients with acute lymphoblastic leukemia
Test: Adverse events (CTCAE version 4.0), Phase II study NCI-9775 of sapanisertib monotherapy
Type: in vivo
Description: Responders could continue on the same dose or proceed to allogeneic hematopoietic cell transplant if available. Non‐responders (but tolerating drug) could increase their dose to 4 mg orally for 21 days every 28 days (dose level + 1) starting in Cycle 3 and 4 mg orally continuously (dose level + 2) starting in Cycle 5 (if they tolerated dose level + 1). Dose reduction was recommended for toxicity (dose level − 1: 2 mg daily for 21 days every 28 days; dose level − 2: 2 mg daily for 5 days/week for 3 weeks every 4 weeks). […] Intrathecal chemotherapy was allowed per institutional standard policies. In‐home blood glucose monitoring was performed daily to monitor blood sugar (a glucometer was given to every patient on the study). Discontinuation of therapy was recommended for disease progression, severe toxicity, lack of response, proceeding to hematopoietic cell transplant, or prolonged delay of the subsequent cycle (>1 month delay for therapy‐related toxicity or >2 months delay for unrelated toxicity).
The primary endpoint was the proportion of successes, which was estimated by the number of successes divided by the total number of evaluable patients. Secondary endpoints of duration of response (CR or CRi) and overall survival (OS) were evaluated using Kaplan–Meier techniques; the frequency of proceeding to allogeneic stem cell transplant after achieving response and adverse events (AEs), as evaluated using reported the NCI Common Terminology Criteria for Adverse Events (CTCAE) version 4.0, were presented using descriptive statistics.

[1] = Grade 3–4, at least possibly related
[2] = Grade >2 hematological, abstract
[3] = grade 3–4 non‐hematologic, abstract
[4] = possibly related, B-Cell, 10 evaluable
[5] = possibly related, T-Cell, 5 evaluable
[6] = treatment-related, 15 evaluable

Compound: CC(C)n1nc(-c2ccc3oc(N)nc3c2)c2c(N)ncnc21 [sapanisertib]
- patients with a grade 3 or higher AE related to the study drug (15 evaluated): 9 patients
- patients with at least 1 grade 3 AE (15 evaluated): 15 patients
- anemia, patients [1]: 4
- leukocytosis, patients [1]: 1
- leukopenia, patients [1]: 2
- lymphopenia, patients [1]: 2
- neutropenia, patients [1]: 1
- thrombocytopenia, patients [1]: 4
- abdominal pain, patients (Grade 3–4 treatment‐related): 1
- anorexia, patients (Grade 3–4 treatment‐related): 1
- bilirubin increase, patients (Grade 3–4 treatment‐related): 1
- confusion, patients (Grade 3–4 treatment‐related): 1
- delirium, patients (Grade 3–4 treatment‐related): 1
- febrile neutropenia, patients (Grade 3–4 treatment‐related): 1
- fibrinogen decrease, patients (Grade 3–4 treatment‐related): 1
- hyperglycemia, patients (Grade 3–4 treatment‐related): 2
- mucositis, patients (Grade 3–4 treatment‐related): 3
- pneumonitis, patients (Grade 3–4 treatment‐related): 1
- thoracic disease, patients (Grade 3–4 treatment‐related): 1
- leukopenia, patients [2]: 3
- lymphopenia, patients [2]: 2
- neutropenia, patients [2]: 1
- thrombocytopenia, patients [2]: 1
- patients with at least one grade ≥3 non‐hematologic AE (Six of 11 patients in clearance-toxicity analysis): 54.5%
- Hyperglycemia, percent of patients (any grade, discussion): 25%
- hyperglycemia, patients (any grade, discussion): 4
- Hyperglycemia G2 (discussion): 2 patients
- Hyperglycemia G3 (discussion): 2 patients
- median time to hyperglycemia (discussion): 6 days
- mucositis (discussion): 3 patients
- anorexia [3]: 1 patient
- confusion [3]: 1 patient
- hepatic failure [3]: 1 patient
- hyperglycemia [3]: 2 patients
- mucositis [3]: 3 patients
- pneumonitis [3]: 1 patient
- seizures [3]: 1 patient
- Abdominal pain grade 3 [4]: 0 (0%) N (%)
- Abdominal pain grade 4 [4]: 0 (0%) N (%)
- Abdominal pain grade 5 [4]: 0 (0%) N (%)
- Anemia grade 3 [4]: 1 (10%) N (%)
- Anemia grade 4 [4]: 0 (0%) N (%)
- Anemia grade 5 [4]: 0 (0%) N (%)
- Anorexia grade 3 [4]: 1 (10%) N (%)
- Anorexia grade 4 [4]: 0 (0%) N (%)
- Anorexia grade 5 [4]: 0 (0%) N (%)
- Confusion grade 3 [4]: 1 (10%) N (%)
- Confusion grade 4 [4]: 0 (0%) N (%)
- Confusion grade 5 [4]: 0 (0%) N (%)
- Fatigue grade 3 [4]: 1 (10%) N (%)
- Fatigue grade 4 [4]: 0 (0%) N (%)
- Fatigue grade 5 [4]: 0 (0%) N (%)
- Febrile neutropenia grade 3 [4]: 1 (10%) N (%)
- Febrile neutropenia grade 4 [4]: 0 (0%) N (%)
- Febrile neutropenia grade 5 [4]: 0 (0%) N (%)
- Hyperglycemia grade 3 [4]: 2 (20%) N (%)
- Hyperglycemia grade 4 [4]: 0 (0%) N (%)
- Hyperglycemia grade 5 [4]: 0 (0%) N (%)
- Leukocytosis grade 3 [4]: 0 (0%) N (%)
- Leukocytosis grade 4 [4]: 0 (0%) N (%)
- Leukocytosis grade 5 [4]: 0 (0%) N (%)
- Lymphocyte count decreased grade 3 [4]: 2 (20%) N (%)
- Lymphocyte count decreased grade 4 [4]: 0 (0%) N (%)
- Lymphocyte count decreased grade 5 [4]: 0 (0%) N (%)
- Mucositis oral grade 3 [4]: 3 (30%) N (%)
- Mucositis oral grade 4 [4]: 0 (0%) N (%)
- Mucositis oral grade 5 [4]: 0 (0%) N (%)
- Neoplasms benign, mal, uncpec - Oth spec grade 3 [4]: 0 (0%) N (%)
- Neoplasms benign, mal, uncpec - Oth spec grade 4 [4]: 0 (0%) N (%)
- Neoplasms benign, mal, uncpec - Oth spec grade 5 [4]: 0 (0%) N (%)
- Neutrophil count decreased grade 3 [4]: 0 (0%) N (%)
- Neutrophil count decreased grade 4 [4]: 1 (10%) N (%)
- Neutrophil count decreased grade 5 [4]: 0 (0%) N (%)
- Platelet count decreased grade 3 [4]: 0 (0%) N (%)
- Platelet count decreased grade 4 [4]: 1 (10%) N (%)
- Platelet count decreased grade 5 [4]: 0 (0%) N (%)
- Pneumonitis grade 3 [4]: 0 (0%) N (%)
- Pneumonitis grade 4 [4]: 0 (0%) N (%)
- Pneumonitis grade 5 [4]: 0 (0%) N (%)
- Resp, thoracic, mediastinal - Oth spec grade 3 [4]: 0 (0%) N (%)
- Resp, thoracic, mediastinal - Oth spec grade 4 [4]: 1 (10%) N (%)
- Resp, thoracic, mediastinal - Oth spec grade 5 [4]: 0 (0%) N (%)
- White blood cell decreased grade 3 [4]: 0 (0%) N (%)
- White blood cell decreased grade 4 [4]: 2 (20%) N (%)
- White blood cell decreased grade 5 [4]: 0 (0%) N (%)
- Abdominal pain grade 3 [5]: 1 (20%) N (%)
- Abdominal pain grade 4 [5]: 0 (0%) N (%)
- Abdominal pain grade 5 [5]: 0 (0%) N (%)
- Anemia grade 3 [5]: 0 (0%) N (%)
- Anemia grade 4 [5]: 0 (0%) N (%)
- Anemia grade 5 [5]: 0 (0%) N (%)
- Anorexia grade 3 [5]: 0 (0%) N (%)
- Anorexia grade 4 [5]: 0 (0%) N (%)
- Anorexia grade 5 [5]: 0 (0%) N (%)
- Confusion grade 3 [5]: 0 (0%) N (%)
- Confusion grade 4 [5]: 0 (0%) N (%)
- Confusion grade 5 [5]: 0 (0%) N (%)
- Fatigue grade 3 [5]: 0 (0%) N (%)
- Fatigue grade 4 [5]: 0 (0%) N (%)
- Fatigue grade 5 [5]: 0 (0%) N (%)
- Febrile neutropenia grade 3 [5]: 0 (0%) N (%)
- Febrile neutropenia grade 4 [5]: 0 (0%) N (%)
- Febrile neutropenia grade 5 [5]: 0 (0%) N (%)
- Hyperglycemia grade 3 [5]: 0 (0%) N (%)
- Hyperglycemia grade 4 [5]: 0 (0%) N (%)
- Hyperglycemia grade 5 [5]: 0 (0%) N (%)
- Leukocytosis grade 3 [5]: 1 (20%) N (%)
- Leukocytosis grade 4 [5]: 0 (0%) N (%)
- Leukocytosis grade 5 [5]: 0 (0%) N (%)
- Lymphocyte count decreased grade 3 [5]: 0 (0%) N (%)
- Lymphocyte count decreased grade 4 [5]: 0 (0%) N (%)
- Lymphocyte count decreased grade 5 [5]: 0 (0%) N (%)
- Mucositis oral grade 3 [5]: 0 (0%) N (%)
- Mucositis oral grade 4 [5]: 0 (0%) N (%)
- Mucositis oral grade 5 [5]: 0 (0%) N (%)
- Neoplasms benign, mal, uncpec - Oth spec grade 3 [5]: 1 (20%) N (%)
- Neoplasms benign, mal, uncpec - Oth spec grade 4 [5]: 0 (0%) N (%)
- Neoplasms benign, mal, uncpec - Oth spec grade 5 [5]: 0 (0%) N (%)
- Neutrophil count decreased grade 3 [5]: 0 (0%) N (%)
- Neutrophil count decreased grade 4 [5]: 0 (0%) N (%)
- Neutrophil count decreased grade 5 [5]: 0 (0%) N (%)
- Platelet count decreased grade 3 [5]: 2 (40%) N (%)
- Platelet count decreased grade 4 [5]: 1 (20%) N (%)
- Platelet count decreased grade 5 [5]: 0 (0%) N (%)
- Pneumonitis grade 3 [5]: 1 (20%) N (%)
- Pneumonitis grade 4 [5]: 0 (0%) N (%)
- Pneumonitis grade 5 [5]: 0 (0%) N (%)
- Resp, thoracic, mediastinal - Oth spec grade 3 [5]: 0 (0%) N (%)
- Resp, thoracic, mediastinal - Oth spec grade 4 [5]: 0 (0%) N (%)
- Resp, thoracic, mediastinal - Oth spec grade 5 [5]: 0 (0%) N (%)
- White blood cell decreased grade 3 [5]: 0 (0%) N (%)
- White blood cell decreased grade 4 [5]: 0 (0%) N (%)
- White blood cell decreased grade 5 [5]: 0 (0%) N (%)
- Abdominal pain grade 1 [6]: 0 (0) N (%)
- Abdominal pain grade 2 [6]: 0 (0) N (%)
- Abdominal pain grade 3 [6]: 1 (7) N (%)
- Abdominal pain grade 4 [6]: 0 (0) N (%)
- Abdominal pain grade 5 [6]: 0 (0) N (%)
- Anal mucositis grade 1 [6]: 0 (0) N (%)
- Anal mucositis grade 2 [6]: 1 (7) N (%)
- Anal mucositis grade 3 [6]: 0 (0) N (%)
- Anal mucositis grade 4 [6]: 0 (0) N (%)
- Anal mucositis grade 5 [6]: 0 (0) N (%)
- Anemia grade 1 [6]: 0 (0) N (%)
- Anemia grade 2 [6]: 0 (0) N (%)
- Anemia grade 3 [6]: 4 (27) N (%)
- Anemia grade 4 [6]: 0 (0) N (%)
- Anemia grade 5 [6]: 0 (0) N (%)
- Anorexia grade 1 [6]: 0 (0) N (%)
- Anorexia grade 2 [6]: 1 (7) N (%)
- Anorexia grade 3 [6]: 1 (7) N (%)
- Anorexia grade 4 [6]: 0 (0) N (%)
- Anorexia grade 5 [6]: 0 (0) N (%)
- Anxiety grade 1 [6]: 1 (7) N (%)
- Anxiety grade 2 [6]: 0 (0) N (%)
- Anxiety grade 3 [6]: 0 (0) N (%)
- Anxiety grade 4 [6]: 0 (0) N (%)
- Anxiety grade 5 [6]: 0 (0) N (%)
- Aspartate aminotransferase increased grade 1 [6]: 1 (7) N (%)
